Where a name gives a salt, the structure may show the parent alone.
Assay: In-vitro dissolution, 900 ml medium (0.1N HCl, pH 4.5 acetate buffer, pH 6.8 or pH 7.5 phosphate buffer), USP Apparatus 1, 75 rpm, 37° C.
Assay type: physicochemical
Conditions: for % Released (Bi-layer Tablets): Example 16 coated bi-layer tablet; for % Released (Homogenous Tablets): Example 19 tablet
Experimental: The dissolution profile of the above pharmaceutical composition was determined under the dissolution conditions described below in Tables 1A, 1B, and 1C.

CN(C)CCC[C@@]1(c2ccc(F)cc2)OCc2cc(C#N)ccc21 [Escitalopram Ox, escitalopram oxalate]
% Released (Example 2 tablet, 0.1N HCl, 1 hr): 15% | % Released (Example 2 tablet, 0.1N HCl, 2 hr): 35% | % Released (Example 2 tablet, 0.1N HCl, 4 hr): 68% | % Released (Example 2 tablet, 0.1N HCl, 8 hr): 99% | % Released (Example 2 tablet, 0.1N HCl, 12 hr): 102% | % Released (Example 2 tablet, 0.1N HCl, 16 hr): 101% | % Released (Example 2 tablet, pH 4.5 acetate buffer, 1 hr): 15% | % Released (Example 2 tablet, pH 4.5 acetate buffer, 2 hr): 35% | % Released (Example 2 tablet, pH 4.5 acetate buffer, 4 hr): 64% | % Released (Example 2 tablet, pH 4.5 acetate buffer, 8 hr): 97% | % Released (Example 2 tablet, pH 4.5 acetate buffer, 12 hr): 101% | % Released (Example 2 tablet, pH 4.5 acetate buffer, 16 hr): 100% | % Released (Example 2 tablet, pH 6.8 phosphate buffer, 1 hr): 14% | % Released (Example 2 tablet, pH 6.8 phosphate buffer, 2 hr): 33% | % Released (Example 2 tablet, pH 6.8 phosphate buffer, 4 hr): 61% | % Released (Example 2 tablet, pH 6.8 phosphate buffer, 8 hr): 92% | % Released (Example 2 tablet, pH 6.8 phosphate buffer, 12 hr): 96% | % Released (Example 2 tablet, pH 6.8 phosphate buffer, 16 hr): 96% | % Released (Example 3 tablet, 0.1N HCl, 1 hr): 14% | % Released (Example 3 tablet, 0.1N HCl, 2 hr): 32% | % Released (Example 3 tablet, 0.1N HCl, 4 hr): 63% | % Released (Example 3 tablet, 0.1N HCl, 8 hr): 102% | % Released (Example 3 tablet, 0.1N HCl, 12 hr): 106% | % Released (Example 3 tablet, 0.1N HCl, 16 hr): 105% | % Released (Example 3 tablet, pH 4.5 acetate buffer, 1 hr): 13% | % Released (Example 3 tablet, pH 4.5 acetate buffer, 2 hr): 29% | % Released (Example 3 tablet, pH 4.5 acetate buffer, 4 hr): 57% | % Released (Example 3 tablet, pH 4.5 acetate buffer, 8 hr): 96% | % Released (Example 3 tablet, pH 4.5 acetate buffer, 12 hr): 102% | % Released (Example 3 tablet, pH 4.5 acetate buffer, 16 hr): 101% | % Released (Example 3 tablet, pH 6.8 phosphate buffer, 1 hr): 13% | % Released (Example 3 tablet, pH 6.8 phosphate buffer, 2 hr): 29% | % Released (Example 3 tablet, pH 6.8 phosphate buffer, 4 hr): 59% | % Released (Example 3 tablet, pH 6.8 phosphate buffer, 8 hr): 99% | % Released (Example 3 tablet, pH 6.8 phosphate buffer, 12 hr): 104% | % Released (Example 3 tablet, pH 6.8 phosphate buffer, 16 hr): 104% | % Released (Example 5 tablet, 0.1N HCl, 1 hr): 13% | % Released (Example 5 tablet, 0.1N HCl, 2 hr): 26% | % Released (Example 5 tablet, 0.1N HCl, 4 hr): 49% | % Released (Example 5 tablet, 0.1N HCl, 8 hr): 81% | % Released (Example 5 tablet, 0.1N HCl, 12 hr): 97% | % Released (Example 5 tablet, 0.1N HCl, 16 hr): 98% | % Released (Example 6 tablet, 0.1N HCl, 1 hr): 16% | % Released (Example 6 tablet, 0.1N HCl, 2 hr): 34% | % Released (Example 6 tablet, 0.1N HCl, 4 hr): 63% | % Released (Example 6 tablet, 0.1N HCl, 8 hr): 97% | % Released (Example 6 tablet, 0.1N HCl, 12 hr): 100% | % Released (Example 6 tablet, 0.1N HCl, 16 hr): 100% | % Released (Example 7 tablet, 0.1N HCl, 1 hr): 2% | % Released (Example 7 tablet, 0.1N HCl, 2 hr): 7% | % Released (Example 7 tablet, 0.1N HCl, 4 hr): 19% | % Released (Example 7 tablet, 0.1N HCl, 8 hr): 44% | % Released (Example 7 tablet, 0.1N HCl, 12 hr): 63% | % Released (Example 7 tablet, 0.1N HCl, 16 hr): 77% | % Released (Example 8 tablet, 0.1N HCl, 1 hr): 0% | % Released (Example 8 tablet, 0.1N HCl, 2 hr): 1% | % Released (Example 8 tablet, 0.1N HCl, 4 hr): 6% | % Released (Example 8 tablet, 0.1N HCl, 8 hr): 19% | % Released (Example 8 tablet, 0.1N HCl, 12 hr): 31% | % Released (Example 8 tablet, 0.1N HCl, 16 hr): 40% | % Released (Example 9 tablet, 0.1N HCl, 1 hr): 17% | % Released (Example 9 tablet, 0.1N HCl, 2 hr): 48% | % Released (Example 9 tablet, 0.1N HCl, 3 hr): 74% | % Released (Example 9 tablet, 0.1N HCl, 4 hr): 93% | % Released (Example 9 tablet, 0.1N HCl, 6 hr): 104% | % Released (Example 9 tablet, 0.1N HCl, 8 hr): 103% | % Released (Example 9 tablet, 0.1N HCl, 10 hr): 103% | % Released (Example 10 tablet, 0.1N HCl, 1 hr): 14% | % Released (Example 10 tablet, 0.1N HCl, 2 hr): 32% | % Released (Example 10 tablet, 0.1N HCl, 4 hr): 59% | % Released (Example 10 tablet, 0.1N HCl, 8 hr): 94% | % Released (Example 10 tablet, 0.1N HCl, 12 hr): 99% | % Released (Example 10 tablet, 0.1N HCl, 16 hr): 99% | % Released (Example 11 tablet, 0.1N HCl, 1 hr): 16% | % Released (Example 11 tablet, 0.1N HCl, 2 hr): 33% | % Released (Example 11 tablet, 0.1N HCl, 4 hr): 56% | % Released (Example 11 tablet, 0.1N HCl, 8 hr): 88% | % Released (Example 11 tablet, 0.1N HCl, 12 hr): 97% | % Released (Example 11 tablet, 0.1N HCl, 16 hr): 97% | % Released (Example 12 tablet, 0.1N HCl, 1 hr): 8% | % Released (Example 12 tablet, 0.1N HCl, 2 hr): 29% | % Released (Example 12 tablet, 0.1N HCl, 3 hr): 47% | % Released (Example 12 tablet, 0.1N HCl, 4 hr): 63% | % Released (Example 12 tablet, 0.1N HCl, 5 hr): 77% | % Released (Example 12 tablet, 0.1N HCl, 6 hr): 92% | % Released (Example 12 tablet, 0.1N HCl, 7 hr): 98% | % Released (Example 12 tablet, 0.1N HCl, 8 hr): 102% | % Released (Example 13 tablet, 0.1N HCl, 1 hr): 9% | % Released (Example 13 tablet, 0.1N HCl, 2 hr): 28% | % Released (Example 13 tablet, 0.1N HCl, 3 hr): 45% | % Released (Example 13 tablet, 0.1N HCl, 4 hr): 60% | % Released (Example 13 tablet, 0.1N HCl, 6 hr): 83% | % Released (Example 13 tablet, 0.1N HCl, 8 hr): 96% | % Released (Example 13 tablet, 0.1N HCl, 10 hr): 99% | % Released (Example 13 tablet, 0.1N HCl, 12 hr): 100% | % Released (Example 13 tablet, 0.1N HCl, 16 hr): 100% | % Released (Example 14 tablet, 0.1N HCl, 4 hr): 56% | % Released (Example 14 tablet, 0.1N HCl, 6 hr): 76% | % Released (Example 14 tablet, 0.1N HCl, 8 hr): 92% | % Released (Example 14 tablet, 0.1N HCl, 10 hr): 99% | % Released (Bi-layer Tablets) (0.1N HCl, 1 hr): 9.47% | % Released (Bi-layer Tablets) (0.1N HCl, 2 hr): 27.06% | % Released (Bi-layer Tablets) (0.1N HCl, 3 hr): 45.32% | % Released (Bi-layer Tablets) (0.1N HCl, 4 hr): 60.81% | % Released (Bi-layer Tablets) (0.1N HCl, 5 hr): 74.22% | % Released (Bi-layer Tablets) (0.1N HCl, 6 hr): 83.48% | % Released (Bi-layer Tablets) (0.1N HCl, 7 hr): 90.11% | % Released (Bi-layer Tablets) (0.1N HCl, 8 hr): 93.47% | % Released (Homogenous Tablets) (0.1N HCl, 1 hr): 16.65% | % Released (Homogenous Tablets) (0.1N HCl, 2 hr): 40.32% | % Released (Homogenous Tablets) (0.1N HCl, 3 hr): 59.61% | % Released (Homogenous Tablets) (0.1N HCl, 4 hr): 75.31% | % Released (Homogenous Tablets) (0.1N HCl, 5 hr): 86.68% | % Released (Homogenous Tablets) (0.1N HCl, 6 hr): 94.46% | % Released (Homogenous Tablets) (0.1N HCl, 7 hr): 99.30% | % Released (Homogenous Tablets) (0.1N HCl, 8 hr): 101.01%

From patent US20090246276A1, “Pharmaceutical Compositions” (priority 2008, published 2009)
